One data set relates to GABAa receptors. As to the kind of experiment: Agonist activity on GABAa receptors, subtype not separated in the text. The class given is cell-based. Particulars: for potentiation of GABAA current / response from GABAa receptors, in words: relative to ketamine, various concentrations. As for the experimental part:
(§1) The GABAa subtypes α6β2δ and α1β2γ2 receptors are expressed at high levels exclusively within mature cerebellar granule neurons.
(§2) The ketamine analogues were tested for agonist activities at GABAa receptors both in the presence and absence of GABA (FIGS. 13-16). […] Oxime 2 was prepared both as a mono-salt and di-salt.

Another data set has as its target T1, α6β2δ GABAa receptors (Homo sapiens, UniProt O14764+P47870+Q16445).
T1 construct: expressed in transfected cells
As to the kind of experiment: Agonist activity of ketamine analogues on GABAa receptors (potentiation of GABA current, oocyte expression system). The class given is cell-based. The procedure:
as §1, §2

Data set [1] relates to rats. As to the kind of experiment: Tail suspension model of depression in rats. In kind it is in vivo. Conditions: 5 mg/kg, tail suspension for 12 minutes. The procedure: Rats were dosed with ketamine oxime disalt and then tested in a model of depression. FIG. 24 illustrates an analysis of the antidepressant effects of ketamine and the oxime analogue at 5 mg/kg in rats undergoing tail suspension for 12 minutes. Note that immobility, giving up the struggle, is a sign of depression in this model. […] V is vehicle, A is ketamine, B is ketamine oxime analogue.

The subject of data set [2] is rats. As to the kind of experiment: Dose response study of motor coordination in rats (open field behavior). In kind it is in vivo. The procedure: The effect of ketamine oxime disalt on motor coordination in rats was evaluated.
Another data set has as its target T2, α1β2γ2 GABAa receptors (Homo sapiens, UniProt P14867+P18507+P47870).
T2 construct: expressed in transfected cells
In words: Agonist activity of ketamine analogues on GABAa receptors (potentiation of GABA current, oocyte expression system). The class given is cell-based. Particulars: for potentiation of GABAa current, in words: 20 μM. As for the experimental part: as §1, §2

The target in data set [3] is NMDA-D (NR1/2D) receptors (Homo sapiens, UniProt O15399+Q05586). As to the kind of experiment: Antagonist activity on NMDA receptors (current blockade and recovery).
Data set [4] relates to α6- and δ-containing GABAa receptors. Particulars: within anesthetically relevant concentration; cited from earlier work.
The target in data set [5] is NMDA-B (NR1/2B) receptors (Homo sapiens, UniProt Q05586+Q13224). As to the kind of experiment: Antagonist activity on NMDA receptors (current blockade and recovery).
In data set [6] the target is NMDA-A (NR1/2A) receptors (Homo sapiens, UniProt Q05586+Q12879). The description is as above.
The next data set concerns mice. Particulars: not significant when compared with ketamine; cited from earlier work.
The subject of a further data set is NMDA receptors. In words: NMDA receptor blockade and recovery, subtypes not separated in the text. The class given is cell-based. Particulars: compared with ketamine.
In the next data set the target is NMDA-NR1/2C receptors (Homo sapiens, UniProt Q05586+Q14957). As to the kind of experiment: Antagonist activity on NMDA receptors (current blockade and recovery). The class given is cell-based. Conditions: concentrations 0.1 to 200 μM.
The nature of data set [7]: Lipophilicity relative to ketamine. The class given is physicochemical.
Data set [8] has as its system NMDA receptors with NR2-A and NR2-B subunits. Particulars: cited from earlier work.
Where [9] appears, read: NMDA-D (NR1/2D), drug concentration 50 μM, current post drug treatment.
[10] abbreviates: NMDA-B (NR1/2B), drug concentration 50 μM, current post drug treatment.
[11] abbreviates: NMDA-A (NR1/2A), drug concentration 50 μM, current post drug treatment.
The mark [12] stands for this setting: NMDA-NR1/2D, affinity study, concentrations 0.1 to 200 μM.
Setting [13] is: NMDA-NR1/2B, affinity study, concentrations 0.1 to 200 μM.
[14] abbreviates: NMDA-NR1/2A, affinity study, concentrations 0.1 to 200 μM.

pIC50: −log10 of the molar value.

T2 sequence (P14867 28-456): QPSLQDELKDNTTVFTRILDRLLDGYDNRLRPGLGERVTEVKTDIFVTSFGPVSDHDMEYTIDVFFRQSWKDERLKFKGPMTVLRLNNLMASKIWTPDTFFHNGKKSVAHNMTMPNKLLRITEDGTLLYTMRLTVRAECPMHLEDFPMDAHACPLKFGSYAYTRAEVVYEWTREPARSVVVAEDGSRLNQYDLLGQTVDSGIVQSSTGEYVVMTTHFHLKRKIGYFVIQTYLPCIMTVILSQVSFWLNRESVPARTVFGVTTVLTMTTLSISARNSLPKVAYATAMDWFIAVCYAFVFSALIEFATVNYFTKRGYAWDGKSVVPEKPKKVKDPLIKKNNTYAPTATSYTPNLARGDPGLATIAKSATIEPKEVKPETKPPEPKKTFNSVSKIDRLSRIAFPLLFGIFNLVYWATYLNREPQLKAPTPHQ
T2 sequence (P47870 25-512 limits assumed): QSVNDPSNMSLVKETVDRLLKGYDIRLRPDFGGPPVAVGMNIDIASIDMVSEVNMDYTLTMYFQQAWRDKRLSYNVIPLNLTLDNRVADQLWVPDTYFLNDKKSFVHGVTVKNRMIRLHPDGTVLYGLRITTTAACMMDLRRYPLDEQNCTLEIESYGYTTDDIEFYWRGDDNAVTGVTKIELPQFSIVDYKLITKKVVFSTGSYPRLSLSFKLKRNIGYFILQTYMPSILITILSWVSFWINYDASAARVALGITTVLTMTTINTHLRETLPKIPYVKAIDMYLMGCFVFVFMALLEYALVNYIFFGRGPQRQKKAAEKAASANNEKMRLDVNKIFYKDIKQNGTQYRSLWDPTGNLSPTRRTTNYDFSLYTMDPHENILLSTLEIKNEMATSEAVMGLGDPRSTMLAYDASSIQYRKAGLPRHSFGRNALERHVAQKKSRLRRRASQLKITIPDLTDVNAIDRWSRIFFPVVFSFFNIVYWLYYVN
T2 sequence (P18507 40-475): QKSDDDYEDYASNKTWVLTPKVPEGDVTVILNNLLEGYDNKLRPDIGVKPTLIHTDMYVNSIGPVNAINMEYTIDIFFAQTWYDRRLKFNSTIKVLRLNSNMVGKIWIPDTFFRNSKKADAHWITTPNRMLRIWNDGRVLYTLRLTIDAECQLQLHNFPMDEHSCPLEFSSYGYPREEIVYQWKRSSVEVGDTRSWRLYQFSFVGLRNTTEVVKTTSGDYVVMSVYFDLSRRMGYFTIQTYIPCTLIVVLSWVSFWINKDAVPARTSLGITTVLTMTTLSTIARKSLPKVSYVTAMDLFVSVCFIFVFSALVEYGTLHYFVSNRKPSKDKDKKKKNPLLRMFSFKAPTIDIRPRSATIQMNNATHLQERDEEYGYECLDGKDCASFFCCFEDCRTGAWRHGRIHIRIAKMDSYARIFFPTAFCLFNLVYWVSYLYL
Sequence of NMDA-D (NR1/2D) receptors (O15399 28-1336, other chains not shown): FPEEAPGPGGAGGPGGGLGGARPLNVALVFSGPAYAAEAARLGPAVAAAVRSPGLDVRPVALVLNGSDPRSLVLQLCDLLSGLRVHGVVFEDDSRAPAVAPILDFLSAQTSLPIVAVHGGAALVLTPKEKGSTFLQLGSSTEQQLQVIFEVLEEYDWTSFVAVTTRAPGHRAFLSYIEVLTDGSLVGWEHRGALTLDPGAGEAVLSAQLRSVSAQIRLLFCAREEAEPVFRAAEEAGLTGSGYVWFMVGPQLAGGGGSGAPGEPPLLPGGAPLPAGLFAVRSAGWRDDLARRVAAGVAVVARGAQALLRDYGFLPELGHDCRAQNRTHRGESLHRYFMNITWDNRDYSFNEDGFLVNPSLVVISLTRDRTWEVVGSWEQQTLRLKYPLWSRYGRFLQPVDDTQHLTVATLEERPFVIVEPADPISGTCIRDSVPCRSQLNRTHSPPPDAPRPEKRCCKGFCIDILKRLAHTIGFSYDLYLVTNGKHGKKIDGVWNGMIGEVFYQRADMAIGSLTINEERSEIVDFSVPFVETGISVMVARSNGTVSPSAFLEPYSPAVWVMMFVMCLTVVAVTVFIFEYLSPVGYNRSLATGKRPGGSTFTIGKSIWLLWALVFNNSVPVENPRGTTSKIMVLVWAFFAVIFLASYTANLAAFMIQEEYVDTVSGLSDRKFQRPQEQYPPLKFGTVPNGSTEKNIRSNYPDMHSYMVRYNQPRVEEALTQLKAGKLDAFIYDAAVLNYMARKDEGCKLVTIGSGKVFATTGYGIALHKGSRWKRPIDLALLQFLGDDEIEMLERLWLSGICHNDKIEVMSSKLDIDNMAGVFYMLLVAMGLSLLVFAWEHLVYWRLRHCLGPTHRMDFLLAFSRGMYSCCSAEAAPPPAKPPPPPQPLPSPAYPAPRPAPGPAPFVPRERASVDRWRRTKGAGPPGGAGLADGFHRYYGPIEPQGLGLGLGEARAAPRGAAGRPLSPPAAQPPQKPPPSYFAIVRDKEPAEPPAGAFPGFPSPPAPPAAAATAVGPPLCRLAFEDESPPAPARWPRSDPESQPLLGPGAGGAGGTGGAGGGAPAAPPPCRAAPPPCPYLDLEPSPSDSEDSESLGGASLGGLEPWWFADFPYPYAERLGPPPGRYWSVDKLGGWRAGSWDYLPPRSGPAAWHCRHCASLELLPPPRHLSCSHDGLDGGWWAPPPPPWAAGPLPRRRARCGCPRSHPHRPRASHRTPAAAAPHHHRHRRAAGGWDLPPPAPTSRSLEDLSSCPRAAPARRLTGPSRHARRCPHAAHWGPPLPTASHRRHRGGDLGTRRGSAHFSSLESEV
Sequence of NMDA-A (NR1/2A) receptors (Q12879 23-1464, other chains not shown): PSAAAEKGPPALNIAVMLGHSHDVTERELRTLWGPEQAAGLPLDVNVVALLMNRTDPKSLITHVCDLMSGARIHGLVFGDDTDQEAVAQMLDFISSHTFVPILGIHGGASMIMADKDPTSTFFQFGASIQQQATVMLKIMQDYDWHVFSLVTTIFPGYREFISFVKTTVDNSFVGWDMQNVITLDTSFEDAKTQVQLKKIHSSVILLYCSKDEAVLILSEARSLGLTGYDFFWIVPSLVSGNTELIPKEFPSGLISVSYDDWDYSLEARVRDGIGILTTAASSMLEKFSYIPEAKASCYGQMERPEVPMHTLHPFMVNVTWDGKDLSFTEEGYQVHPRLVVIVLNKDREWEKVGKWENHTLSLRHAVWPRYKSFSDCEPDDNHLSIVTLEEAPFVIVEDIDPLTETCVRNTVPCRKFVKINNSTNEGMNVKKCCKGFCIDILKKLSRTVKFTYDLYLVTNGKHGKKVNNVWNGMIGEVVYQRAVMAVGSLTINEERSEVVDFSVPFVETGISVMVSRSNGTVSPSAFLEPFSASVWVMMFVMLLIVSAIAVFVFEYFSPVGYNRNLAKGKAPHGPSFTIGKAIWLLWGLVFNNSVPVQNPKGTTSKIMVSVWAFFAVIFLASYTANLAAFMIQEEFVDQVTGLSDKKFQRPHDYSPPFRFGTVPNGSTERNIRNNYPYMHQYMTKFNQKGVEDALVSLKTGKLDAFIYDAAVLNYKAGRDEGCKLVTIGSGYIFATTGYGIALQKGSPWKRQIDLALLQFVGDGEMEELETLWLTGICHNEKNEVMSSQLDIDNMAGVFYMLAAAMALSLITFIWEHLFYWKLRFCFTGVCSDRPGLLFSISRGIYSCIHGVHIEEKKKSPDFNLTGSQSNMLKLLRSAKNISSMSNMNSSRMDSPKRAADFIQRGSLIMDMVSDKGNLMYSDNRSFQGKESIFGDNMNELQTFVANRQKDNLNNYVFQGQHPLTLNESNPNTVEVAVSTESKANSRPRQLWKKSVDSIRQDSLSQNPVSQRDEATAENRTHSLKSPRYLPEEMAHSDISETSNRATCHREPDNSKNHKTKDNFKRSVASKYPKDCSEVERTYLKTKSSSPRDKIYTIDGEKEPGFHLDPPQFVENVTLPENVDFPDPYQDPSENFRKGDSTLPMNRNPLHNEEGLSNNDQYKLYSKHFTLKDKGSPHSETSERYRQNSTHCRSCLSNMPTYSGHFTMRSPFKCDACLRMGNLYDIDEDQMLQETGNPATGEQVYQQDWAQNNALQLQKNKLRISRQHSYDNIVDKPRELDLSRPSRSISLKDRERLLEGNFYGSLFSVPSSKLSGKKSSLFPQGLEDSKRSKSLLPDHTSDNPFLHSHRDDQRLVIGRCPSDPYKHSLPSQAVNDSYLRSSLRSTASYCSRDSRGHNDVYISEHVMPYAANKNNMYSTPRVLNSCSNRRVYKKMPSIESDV
T1 sequence (Q16445 20-453): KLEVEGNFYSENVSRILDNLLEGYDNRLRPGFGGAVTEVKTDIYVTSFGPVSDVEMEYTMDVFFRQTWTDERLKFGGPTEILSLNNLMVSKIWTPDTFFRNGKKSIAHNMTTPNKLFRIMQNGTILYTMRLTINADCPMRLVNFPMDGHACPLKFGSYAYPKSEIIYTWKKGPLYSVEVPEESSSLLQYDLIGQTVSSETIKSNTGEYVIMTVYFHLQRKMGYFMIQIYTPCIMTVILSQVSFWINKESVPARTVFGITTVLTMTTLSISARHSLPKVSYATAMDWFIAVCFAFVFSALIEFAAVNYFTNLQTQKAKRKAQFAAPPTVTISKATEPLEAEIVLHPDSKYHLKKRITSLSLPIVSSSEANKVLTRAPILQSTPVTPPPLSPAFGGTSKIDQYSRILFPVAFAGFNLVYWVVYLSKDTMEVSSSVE
T1 sequence (P47870 25-512 limits assumed): as the sequence (P47870 25-512 limits assumed) above
T1 sequence (O14764 25-452): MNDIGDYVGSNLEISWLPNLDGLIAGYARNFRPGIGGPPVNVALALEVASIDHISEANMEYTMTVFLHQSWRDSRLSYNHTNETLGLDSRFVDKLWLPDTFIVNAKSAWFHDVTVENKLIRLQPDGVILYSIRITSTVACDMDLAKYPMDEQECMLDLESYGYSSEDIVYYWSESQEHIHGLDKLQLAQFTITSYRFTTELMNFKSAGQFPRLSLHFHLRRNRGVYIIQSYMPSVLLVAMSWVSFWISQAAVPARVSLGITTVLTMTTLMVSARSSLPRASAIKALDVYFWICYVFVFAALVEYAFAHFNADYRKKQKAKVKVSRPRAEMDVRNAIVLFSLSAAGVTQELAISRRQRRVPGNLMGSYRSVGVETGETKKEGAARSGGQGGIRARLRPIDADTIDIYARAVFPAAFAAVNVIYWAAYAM

For `CNC1(c2ccccc2Cl)CCCCC1O` (stereo not drawn) [Hydroxy, 2-(2-Chloro-phenyl)-2-methylamino-cyclohexanol], in the data set on GABAa receptors, the “potentiation of GABAA current / response from GABAa receptors, in words” value (“potentiation of GABAA current / response” below) is recorded as “less sensitivity than ketamine”. The “IAverage = (IGABA + Drug/IGABA) 100” value at α6β2δ GABAa receptors (Conc. 10 (μM)) amounted to 100 n. amp; on α6β2δ GABAa receptors (Conc. 20 (μM)), 100 n. amp; on α6β2δ GABAa receptors (Conc. 50 (μM)) it was 123.98 n. amp; on α6β2δ GABAa receptors (Conc. 100 (μM)), 135.41 n. amp.

On to `CNC1(c2ccccc2Cl)CCCC/C1=N\O` (stereo not drawn) [Oxime (Disalt), 2-(2-Chloro-phenyl)-2-methylamino-cyclohexanone oxime], for which the “immobility in tail suspension, overall versus saline” value in the data set with rats [1] is on record as “No significant differences”. In addition, in the data set on rats [1], the “immobility in tail suspension, slope analysis” value was “decreased immobility”. Moreover, the “effect on motor coordination (open field behavior)” value in the data set on rats [2] (6 and 12 minute period following injection, dose response) is recorded as “CNS depressant effects”. Besides, the “observed behaviour in vivo” value with rats [2] (at higher doses) was “loss of equilibrium, unsteady gait and immobility”. Moreover, the “righting reflex (an indication of anesthesia)” value with rats [2] (at higher doses) is recorded as “without loss of righting reflex”. In addition, the entries for the “potentiation of GABAa current, in words” value at α6β2δ GABAa receptors (20 μM) and at α1β2γ2 GABAa receptors were “greater potentiation” and “greatly potentiated”, respectively. In addition, the “increase in potentiation relative to ketamine” value on α6β2δ GABAa receptors (50 μM) and on α1β2γ2 GABAa receptors (100 μM) was “nearly two fold increase” in each case. The “IAverage = (IGABA + Drug/IGABA) 100” value at α6β2δ GABAa receptors (Conc. 10 (μM)) was 165.4 n. amp; on α6β2δ GABAa receptors (Conc. 20 (μM)), 239 n. amp; on α6β2δ GABAa receptors (Conc. 50 (μM)), 418 n. amp; at α1β2γ2 GABAa receptors (Conc. 20 (μM)), 122.678 n. amp; at α1β2γ2 GABAa receptors (Conc. 50 (μM)), 153.41 n. amp; on α1β2γ2 GABAa receptors (Conc. 100 (μM)), 214.5 n. amp.

As usually defined, the inhibition is the share of the control response that was lost under treatment. Read a low inhibition as little suppression. Take `c1ccc(C2(N3CCCCC3)CCCCC2)cc1` [PCP, Phencyclidine, reference compound]: the values for the inhibition at 50 µM in data set [3], in [5] and in [6] were 87.5%, 96.8% and 88.4%, respectively. The “% Recovery” value in data set [3] (setting [9]) was found to be 66.666%; in data set [5] (setting [10]) it was 59.677%; in [6] (setting [11]), 93.953%. In data set [4], the “potentiation of GABA / tonic chloride current” value is reported as “less active compared to ketamine”.

Turning to `C[C@]12N[C@H](Cc3ccccc31)c1ccccc12` [Mk-801], the “potentiation of GABA / tonic chloride current” value in [4] is recorded as “less active compared to ketamine”.

For the compound `CC1(N)CCc2ccccc2C1=O` (stereo not drawn) [2-amino-2-methyl-1-tetralone], in the data set on mice, the locomotor activity entry is “increased locomotor activity”.

The pIC50 is the negative decadic logarithm of the IC50, by convention in mol/L. On to `CNC1(c2ccccc2Cl)CCCCC1=O` (stereo not drawn) [Ketamine, reference compound], for which the results for the pIC50 in [3], in [5] and in data set [6] were 6.12, 6.09 and 5.63, respectively. Also, the figures for the inhibition at 50 µM in [3], in data set [5] and in data set [6] were 88.1%, 80.5% and 57.6%, respectively. Further, the “% Recovery” value in [3] (setting [9]) turned out to be 26.19%; in data set [3] (setting [12]), 24%; in data set [5] (setting [10]), 34.564%; in [5] (setting [13]) it was 19%; in [6] (setting [11]) it was 84.745%; in data set [6] (setting [14]) it was 28%. Moreover, the “immobility in tail suspension, overall versus saline” value with rats [1] is on record as “No significant differences”. In data set [4], the “potentiation of GABA / tonic chloride current” value is listed as “potentiated the GABA current”. For the same compound, the “IAverage = (IGABA + Drug/IGABA) 100” value at α6β2δ GABAa receptors (Conc. 10 (μM)) is given as 116.2 n. amp; on α6β2δ GABAa receptors (Conc. 20 (μM)), 157.1 n. amp; on α6β2δ GABAa receptors (Conc. 50 (μM)), 218.3 n. amp; on α1β2γ2 GABAa receptors (Conc. 20 (μM)), 0 n. amp; at α1β2γ2 GABAa receptors (Conc. 50 (μM)) it was 105 n. amp; on α1β2γ2 GABAa receptors (Conc. 100 (μM)), 119 n. amp. Further, the “potentiation of GABAa current, in words” value at α1β2γ2 GABAa receptors was “not able to potentiate any current”.

As to `CNC1(c2ccccc2Cl)CCCC/C1=N\O` (stereo not drawn) [Oxime, 2-(2-Chloro-phenyl)-2-methylamino-cyclohexanone oxime], the “excitory post synaptic potential relative to ketamine” value in the data set on GABAa receptors (GABAa receptors) is “two times more excitory post synaptic potential than ketamine”. Also, the “potentiation of GABAA current / response” value in the data set on GABAa receptors is given as “greatly potentiated”. Also, the pIC50 was 5.97 in data set [3], 5.97 in [5], 6.13 at NMDA-NR1/2C receptors and 5.23 in data set [6]. For the same compound, the inhibition at 50 µM in data set [3] was found to be 86.7%; in [5], 83%; in data set [6] it was 89.2%. Moreover, the “% Recovery” value in data set [3] (setting [9]) is 52.272%; in data set [3] (setting [12]), 68%; in data set [5] (setting [10]), 33.9622%; in data set [5] (setting [13]), 31%; at NMDA-NR1/2C receptors (affinity study), 44%; in data set [6] (setting [11]) it was 86.1538%. The “% Recovery” value in data set [6] (setting [14]) was 74%. Besides, the “lasting effect following wash of the drug” value in the data set with NMDA receptors is on record as “less than ketamine”. The “lipophilicity compared to ketamine” value in data set [7] was “reduce lipophilicity”. The IC50 versus ketamine result in data set [6] (NMDA-A receptors) is “two fold higher”.

Regarding `CNC1(c2ccccc2Cl)CCCC/C1=N\OC` (stereo not drawn) [Methoxime, 2-(2-Chloro-phenyl)-2-methylamino-cyclohexanone O-methyl-oxime], in the data set on GABAa receptors, the “potentiation of GABAA current / response” value is “did not evoke considerable response”. Besides, the inhibition at 50 µM in [3] came to 57.5%; in data set [5], 75.6%; in [6] it was 25.3%. Further, the “% Recovery” value in data set [3] (setting [9]) was determined as 82.5%; in data set [5] (setting [10]), 71.6417%; in [6] (setting [11]), 98.453%. Also, in data set [7], the “lipophilicity compared to ketamine” value is listed as “increased lipophilicity”.

On to `CNC1(c2ccccc2Cl)CCCC/C1=N\O` (stereo not drawn) [Oxime (Monosalt), 2-(2-Chloro-phenyl)-2-methylamino-cyclohexanone oxime], for which the “IAverage = (IGABA + Drug/IGABA) 100” value on α6β2δ GABAa receptors (Conc. 10 (μM)) came to 128.2 n. amp; on α6β2δ GABAa receptors (Conc. 20 (μM)) it was 193.746 n. amp; on α6β2δ GABAa receptors (Conc. 50 (μM)) it was 312.04 n. amp.

For `CNC1(c2ccccc2Cl)CCCC/C1=N\OCc1ccccc1` (stereo not drawn) [Benzoxime, 2-(2-Chloro-phenyl)-2-methylamino-cyclohexanone O-benzyl-oxime], the “potentiation of GABAA current / response” value in the data set on GABAa receptors is “did not evoke considerable response”. Also, the inhibition at 50 µM in [3] turned out to be 49.3%; in data set [5], 41%. Moreover, the “% Recovery” value in data set [3] (setting [9]) was 79.452%; in data set [5] (setting [10]), 77.639%. In data set [7], the “lipophilicity compared to ketamine” value is listed as “increased lipophilicity”.

As for `CNC1(c2ccc(OC)cc2Cl)CCCCC1=O` (stereo not drawn) [G], the “functional activity in comparison to ketamine” value in [8] is on record as “appreciable activity”.

On to `CNC1(c2ccccc2Cl)CCCC/C1=N\NC(N)=O` (stereo not drawn) [Semicarbazone, 2-(2-Chloro-phenyl)-2-methylamino-cyclohexanone O-semicarbazone], for which the “potentiation of GABAA current / response” value in the data set on GABAa receptors was “less sensitive than ketamine”. For the same compound, the results for the inhibition at 50 µM in [3], in [5] and in [6] were 33.3%, 50.8% and 33.6%, respectively. For the same compound, in data set [5] (setting [10]), the “% Recovery” value stood at 98.484%.

Take `CC1(N)C(=O)CCc2ccccc21` (stereo not drawn) [1-amino-1-methyl-2-tetralone]: the locomotor activity result in the data set on mice was “decreased”.

The values are drawn from patent US9073819B2, “Compositions, methods of use, and methods of treatment” (UNIVERSITY OF SOUTH FLORIDA, priority 2011, dated 2015).
